Measured values taken from ChEMBL document CHEMBL3763119, “Metal-based biologically active azoles and β-lactams derived from sulfa drugs” (Bioorg Med Chem, 2016).

Key:
Escherichia coli [1] = assay: Antibacterial activity against Escherichia coli at 1 ug/ml by disc diffusion method; assay type: functional; conditions: read-out: DIZ
Pseudomonas aeruginosa [2] = assay: Antibacterial activity against Pseudomonas aeruginosa at 1 ug/ml by disc diffusion method; assay type: functional; conditions: read-out: DIZ
Proteus sp. [3] = assay: Antibacterial activity against Proteus sp. at 1 ug/ml by disc diffusion method; assay type: functional; conditions: Proteus sp. (in: enterobacteria); read-out: DIZ
Staphylococcus aureus [4] = assay: Antibacterial activity against Staphylococcus aureus at 1 ug/ml by disc diffusion method; assay type: functional; conditions: read-out: DIZ
[5] = Solubility of the compound in ethanol; assay type: physicochemical
[6] = Solubility of the compound in dioxane; assay type: physicochemical
[7] = Solubility of the compound in THF; assay type: physicochemical
Escherichia coli [8] = assay: Antibacterial activity against Escherichia coli at 10 ug/ml by disc diffusion method; assay type: functional; conditions: read-out: DIZ
Pseudomonas aeruginosa [9] = assay: Antibacterial activity against Pseudomonas aeruginosa at 10 ug/ml by disc diffusion method; assay type: functional; conditions: read-out: DIZ
Proteus sp. [10] = assay: Antibacterial activity against Proteus sp. at 10 ug/ml by disc diffusion method; assay type: functional; conditions: Proteus sp. (in: enterobacteria); read-out: DIZ
Staphylococcus aureus [11] = assay: Antibacterial activity against Staphylococcus aureus at 10 ug/ml by disc diffusion method; assay type: functional; conditions: read-out: DIZ
Escherichia coli [12] = assay: Antibacterial activity against Escherichia coli at 50 ug/ml by disc diffusion method; assay type: functional; conditions: read-out: DIZ
Pseudomonas aeruginosa [13] = assay: Antibacterial activity against Pseudomonas aeruginosa at 50 ug/ml by disc diffusion method; assay type: functional; conditions: read-out: DIZ
Proteus sp. [14] = assay: Antibacterial activity against Proteus sp. at 50 ug/ml by disc diffusion method; assay type: functional; conditions: Proteus sp. (in: enterobacteria); read-out: DIZ
Staphylococcus aureus [15] = assay: Antibacterial activity against Staphylococcus aureus at 50 ug/ml by disc diffusion method; assay type: functional; conditions: read-out: DIZ
Escherichia coli [16] = assay: Antibacterial activity against Escherichia coli at 100 ug/ml by disc diffusion method; assay type: functional; conditions: read-out: DIZ
Pseudomonas aeruginosa [17] = assay: Antibacterial activity against Pseudomonas aeruginosa at 100 ug/ml by disc diffusion method; assay type: functional; conditions: read-out: DIZ
Proteus sp. [18] = assay: Antibacterial activity against Proteus sp. at 100 ug/ml by disc diffusion method; assay type: functional; conditions: Proteus sp. (in: enterobacteria); read-out: DIZ
Staphylococcus aureus [19] = assay: Antibacterial activity against Staphylococcus aureus at 100 ug/ml by disc diffusion method; assay type: functional; conditions: read-out: DIZ
Proteus sp. [20] = assay: Antibacterial activity against Proteus sp. at 30 ug/ml by disc diffusion method; assay type: functional; conditions: Proteus sp. (in: enterobacteria); read-out: DIZ
Escherichia coli [21] = assay: Antibacterial activity against Escherichia coli at 5 ug/ml by disc diffusion method; conditions: read-out: DIZ
Pseudomonas aeruginosa [22] = assay: Antibacterial activity against Pseudomonas aeruginosa at 5 ug/ml by disc diffusion method; conditions: read-out: DIZ
Staphylococcus aureus [23] = assay: Antibacterial activity against Staphylococcus aureus at 5 ug/ml by disc diffusion method; conditions: read-out: DIZ
Escherichia coli [24] = assay: Antibacterial activity against Escherichia coli at 15 ug/ml by disc diffusion method; assay type: functional; conditions: read-out: DIZ
Staphylococcus aureus [25] = assay: Antibacterial activity against Staphylococcus aureus at 15 ug/ml by disc diffusion method; assay type: functional; conditions: read-out: DIZ
Escherichia coli [26] = assay: Antibacterial activity against Escherichia coli at 30 ug/ml by disc diffusion method; assay type: functional; conditions: read-out: DIZ
Pseudomonas aeruginosa [27] = assay: Antibacterial activity against Pseudomonas aeruginosa at 30 ug/ml by disc diffusion method; assay type: functional; conditions: read-out: DIZ
Staphylococcus aureus [28] = assay: Antibacterial activity against Staphylococcus aureus at 30 ug/ml by disc diffusion method; assay type: functional; conditions: read-out: DIZ

Structure (SMILES) | zone of inhibition at 1 µg/mL (Escherichia coli [1]) | zone of inhibition at 1 µg/mL (Staphylococcus aureus [4]) | solubility [5] | solubility [6] | solubility [7] | zone of inhibition at 10 µg/mL (Escherichia coli [8]) | zone of inhibition at 10 µg/mL (Pseudomonas aeruginosa [9]) | zone of inhibition at 10 µg/mL (Proteus sp. [10]) | zone of inhibition at 10 µg/mL (Staphylococcus aureus [11]) | zone of inhibition at 50 µg/mL (Escherichia coli [12]) | zone of inhibition at 50 µg/mL (Pseudomonas aeruginosa [13]) | zone of inhibition at 50 µg/mL (Proteus sp. [14]) | zone of inhibition at 50 µg/mL (Staphylococcus aureus [15]) | zone of inhibition at 100 µg/mL (Escherichia coli [16]) | zone of inhibition at 100 µg/mL (Pseudomonas aeruginosa [17]) | zone of inhibition at 100 µg/mL (Proteus sp. [18]) | zone of inhibition at 100 µg/mL (Staphylococcus aureus [19]) | further results
COc1cccc(C2C(Cl)C(=O)N2c2ccc(S(=O)(=O)Nc3cc(C)on3)cc2)c1O (configuration not stated) | 7 mm | 7 mm | soluble | soluble | soluble | 9 mm | 9 mm | 10 mm | 9 mm | 13 mm | 11 mm | 12 mm | 11 mm | 14 mm | 13 mm | 12 mm | 16 mm | zone of inhibition at 1 µg/mL (Pseudomonas aeruginosa [2]): 6 mm; zone of inhibition at 1 µg/mL (Proteus sp. [3]): 6 mm
COc1cccc(/C=N/c2ccc(S(=O)(=O)Nc3cc(C)on3)cc2)c1O | 6 mm | 6 mm | soluble | soluble | soluble | 8 mm | 10 mm | 11 mm | 8 mm | 11 mm | 11 mm | 14 mm | 10 mm | 14 mm | 15 mm | 15 mm | 12 mm | zone of inhibition at 1 µg/mL (Pseudomonas aeruginosa [2]): 6 mm; zone of inhibition at 1 µg/mL (Proteus sp. [3]): 6 mm
COc1cccc(/C=N/c2ccc(S(=O)(=O)Nc3nccs3)cc2)c1O | 6 mm | 6 mm | soluble | soluble | soluble | 9 mm | 8 mm | 7 mm | 9 mm | 12 mm | 10 mm | 8 mm | 12 mm | 15 mm | 13 mm | 9 mm | 14 mm | 
COc1cccc(C2C(Cl)C(=O)N2c2ccc(S(=O)(=O)Nc3nccs3)cc2)c1O (configuration not stated) | 6 mm | 6 mm | soluble | soluble | soluble | 8 mm | 6 mm | 7 mm | 8 mm | 12 mm | 9 mm | 8 mm | 12 mm | 13 mm | 11 mm | 9 mm | 16 mm | 
C[C@H]1[C@H](NC(=O)/C(=N\OC(C)(C)C(=O)O)c2csc(N)n2)C(=O)N1S(=O)(=O)O [AZTREONAM] |  |  |  |  |  |  |  |  |  |  |  |  |  |  |  |  |  | zone of inhibition at 30 µg/mL (Proteus sp. [20]): 24 mm
O=C(O)c1cn(C2CC2)c2cc(N3CCNCC3)c(F)cc2c1=O [CIPROFLOXACIN] |  |  |  |  |  |  |  |  |  |  |  |  |  |  |  |  |  | zone of inhibition at 5 µg/mL (Escherichia coli [21]): 28 mm; zone of inhibition at 5 µg/mL (Pseudomonas aeruginosa [22]): 17 mm; zone of inhibition at 5 µg/mL (Staphylococcus aureus [23]): 20 mm
CC[C@H]1OC(=O)[C@H](C)[C@@H](O[C@H]2C[C@@](C)(OC)[C@@H](O)[C@H](C)O2)[C@H](C)[C@@H](O[C@@H]2O[C@H](C)C[C@H](N(C)C)[C@H]2O)[C@](C)(OC)C[C@@H](C)C(=O)[C@H](C)[C@@H](O)[C@]1(C)O [CLARITHROMYCIN] |  |  |  |  |  |  |  |  |  |  |  |  |  |  |  |  |  | zone of inhibition at 15 µg/mL (Escherichia coli [24]): 16 mm; zone of inhibition at 15 µg/mL (Staphylococcus aureus [25]): 23 mm
CO[C@@H]1[C@@H](OC(N)=O)[C@@H](O)[C@H](Oc2ccc3c(O)c(NC(=O)c4ccc(O)c(CC=C(C)C)c4)c(=O)oc3c2C)OC1(C)C [NOVOBIOCIN] |  |  |  |  |  |  |  |  |  |  |  |  |  |  |  |  |  | zone of inhibition at 30 µg/mL (Proteus sp. [20]): 20 mm; zone of inhibition at 30 µg/mL (Escherichia coli [26]): 7 mm; zone of inhibition at 30 µg/mL (Pseudomonas aeruginosa [27]): 14 mm; zone of inhibition at 30 µg/mL (Staphylococcus aureus [28]): 24 mm
Cc1cc(NS(=O)(=O)c2ccc(N)cc2)no1 [SULFAMETHOXAZOLE] |  |  |  |  |  | 8 mm | 7 mm | 7 mm | 6 mm | 10 mm | 8 mm | 8 mm | 8 mm | 12 mm | 10 mm | 9 mm | 9 mm | 
Nc1ccc(S(=O)(=O)Nc2nccs2)cc1 [SULFATHIAZOLE] |  | 6 mm |  |  |  | 7 mm | 7 mm | 8 mm | 10 mm | 10 mm | 8 mm | 10 mm | 13 mm | 11 mm | 9 mm | 11 mm | 15 mm | 
